Measurements taken from US9545105B2, “1-(heterocyclic carbonyl) piperidines” (BAYER INTELLECTUAL PROPERTY GMBH, priority 2010, dated 2017).

Key:
[1] = tested on: Blumeria graminis f. sp. hordei; assay: In vivo preventive test on Blumeria graminis (barley); conditions: 500 ppm of active ingredient, evaluated 7 days after inoculation
Description: (§1) Solvent: 49 parts by weight of N,N-dimethylacetamide Emulsifier: 1 part by weight of alkylaryl polyglycol ether To produce a suitable preparation of active compound, 1 part by weight of active compound or active compound combination is mixed with the stated amounts of solvent and emulsifier, and the concentrate is diluted with water to the desired concentration. To test for preventive activity, young plants are sprayed with the preparation of active compound or active compound combination at the stated rate of application. After the spray coating has been dried, the plants are dusted with spores of Blumeria graminis f. sp. hordei. The plants are placed in the greenhouse at a temperature of approximately 18° C. and a relative atmospheric humidity of approximately 80% to promote the development of mildew pustules. The test is evaluated 7 days after the inoculation. 0% means an efficacy which corresponds to that of the untreated control, while an efficacy of 100% means that no disease is observed.

Leptosphaeria nodorum = assay: In vivo preventive test on Leptosphaeria nodorum (wheat); conditions: 500 ppm of active ingredient, evaluated 8 days after inoculation
Description: as §1, with “sprayed” for “dusted”, “a spore suspension” for “spores”, “Leptosphaeria nodorum. The plants remain for 48 hours in an incubation cabinet at approximately 20° C. and a relative atmospheric humidity of approximately 100%.” for “Blumeria graminis f. sp. hordei.”, “22°” for “18°”, “80%.” for “80% to promote the development of mildew pustules.”, “8” for “7”

Pyrenophora teres = assay: In vivo preventive test on Pyrenophora teres (barley); conditions: 500 ppm of active ingredient, evaluated 7-9 days after inoculation
In short: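 Young barley plants sprayed with compound in DMF/alkylaryl polyglycol ether emulsion; inoculated with P. teres spores one day later. 48 h at 22 °C, 100% humidity, then greenhouse ~20 °C, ~80% humidity; efficacy scored 7-9 days post-inoculation, 0% = untreated, 100% = no disease.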

[2] = log P by HPLC on reversed-phase column (C 18), EEC Directive 79/831 Annex V.A8; format: physicochemical; conditions: HPLC on reversed-phase column (C 18); 40° C.; 0.1% aqueous formic acid and acetonitrile; linear gradient 10% to 90% acetonitrile
In short: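 Retention times were converted to log P by linear interpolation between two successive unbranched alkan-2-ones (3 to 16 carbon atoms) of known log P used for calibration. Elution ran at 40° C with a linear gradient from 10% to 90% acetonitrile against 0.1% aqueous formic acid.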

Uromyces appendiculatus = assay: In vivo preventive test on Uromyces appendiculatus (bean rust); conditions: 100 ppm of active ingredient, evaluated 10 days after inoculation
Description: Solvent: 24.5 parts by weight of acetone • 24.5 parts by weight of N,N-dimethylacetamide Emulsifier: 1 part by weight of alkylaryl polyglycol ether To produce a suitable preparation of active compound, 1 part by weight of active compound is mixed with the stated amounts of solvent and emulsifier, and the concentrate is diluted with water to the desired concentration. To test for preventive activity, young plants are sprayed with the preparation of active compound at the stated rate of application. After the spray coating has dried on, the plants are inoculated with an aqueous spore suspension of the causal agent of bean rust (Uromyces appendiculatus) and then remain for 1 day in an incubation cabinet at approximately 20° C. and a relative atmospheric humidity of 100%. The plants are then placed in a greenhouse at approximately 21° C. and a relative atmospheric humidity of approximately 90%. The test is evaluated 10 days after the inoculation. 0% means an efficacy which corresponds to that of the untreated control, while an efficacy of 100% means that no disease is observed.

Puccinia triticina = assay: In vivo preventive test on Puccinia triticina (wheat); conditions: 500 ppm of active ingredient, evaluated 8 days after inoculation
Description: as §1, with “sprayed” for “dusted”, “a spore suspension” for “spores”, “Puccinia triticina. The plants remain for 48 hours in an incubation cabinet at approximately 20° C. and a relative atmospheric humidity of approximately 100%.” for “Blumeria graminis f. sp. hordei.”, “20°” for “18°”, “80%.” for “80% to promote the development of mildew pustules.”, “8” for “7”

Sphaerotheca fuliginea = assay: In vivo preventive test on Sphaerotheca fuliginea (cucumber); conditions: 500 ppm of active ingredient, evaluated 7 days after inoculation
In short: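 Active compound in DMF with alkylarylpolyglycolether emulsifier, diluted in water and sprayed on young cucumber plants at the stated rate. One day later, plants inoculated with S. fuliginea spore suspension and kept at about 23 °C, 70% RH; efficacy scored 7 days post-inoculation, 0% = untreated, 100% = no disease.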

Row | Structure (SMILES) | Efficacy [1] [%] | Efficacy (Leptosphaeria nodorum) [%] | Efficacy (Pyrenophora teres) [%] | logP [2] | Efficacy (Uromyces appendiculatus) [%] | Efficacy (Puccinia triticina) [%] | Efficacy (Sphaerotheca fuliginea) [%]
1 | Cc1cc(C)cc(C2CCCCN2C(=O)c2c(C)nn(C)c2F)c1 (stereo not shown) [Example 10] | 88 | 71 | 100 | 3.23 | 100 | 88 | 95
2 | CCc1nn(C)c(F)c1C(=O)N1CCCCC1c1cc(C)cc(C)c1 (stereo not shown) [Example 11] | 80 |  | 100 | 3.62 | 98 | 100 | 95
3 | CCc1nn(C)c(F)c1C(=O)N1CCCCC1c1ccc(Cl)cc1 (stereo not shown) [Example 54] | 70 | 100 | 100 | 3.35 | 96 | 100 | 
4 | CCC(c1ccccc1)C1CCCCN1C(=O)c1c(C(F)F)nn(C)c1F (stereo not shown) [Example 136] | 100 | 100 | 100 | 3.59 | 78 |  | 98
5 | CCC(c1ccccc1)C1CCCCN1C(=S)c1c(C(F)F)nn(C)c1F (stereo not shown) [Example 140] | 100 | 93 | 100 | 4.39 | 94 |  | 100
